Results taken from PMC8745330, “Aromatic Sulfonamides including a Sulfonic Acid Tail: New Membrane Impermeant Carbonic Anhydrase Inhibitors for Targeting Selectively the Cancer-Associated Isoforms” (International Journal of Molecular Sciences, 2021).

Tests used:
hCA I = molecular target: T1, hCA I (Homo sapiens, UniProt P00915); experiment: stopped flow CO2 hydrase assay, CA I; type: biochemical; conditions: mean from 3 different assays, errors ±5–10%
T1 construct: made in house
Description: (§1) An Applied Photophysics stopped-flow instrument was used for assaying the CA catalyzed CO2 hydration activity. Phenol red (at a concentration of 0.2 mM) was used as an indicator, working at the absorbance maximum of 557 nm, with 20 mM HEPES (pH 7.5) as buffer, and 20 mM Na2SO4 (for maintaining constant the ionic strength), following the initial rates of the CA-catalyzed CO2 hydration reaction for a period of 10–100 s. The CO2 concentrations ranged from 1.7 to 17 mM for the determination of the kinetic parameters and inhibition constants. For each inhibitor, at least six traces of the initial 5–10% of the reaction were used for determining the initial velocity. The uncatalyzed rates were determined in the same manner and subtracted from the total observed rates. Stock solutions of inhibitor (0.1 mM) were prepared in distilled–deionized water, and dilutions up to 0.01 nM were done thereafter with the assay buffer. Inhibitor and enzyme solutions were preincubated together for 45 min at room temperature prior to assay in order to allow for the formation of the E–I complex. The inhibition constants were obtained by non-linear least-squares methods using PRISM 3 and the Cheng–Prusoff equation, as reported earlier, representing the mean from at least three different determinations. […] All CA isoforms were recombinant ones obtained in-house, as reported earlier.

[1] = Caco-2 cell viability by MTS; type: cell-based; conditions: human; Caco-2 cells, 50 μM, 2 h of exposure, MTS; data not shown
Description: (§2) The colorectal adenocarcinoma cell line Caco-2 was purchased from American Tissue Type Culture Collection (Manassas, VA, USA) and cultured in Dulbecco’s modified Eagle’s medium (DMEM) (Thermo Fisher Scientific, Rodano, Milan, Italy) with 20% fetal bovine serum (FBS) (Thermo Fisher Scientific, Rodano, Milan, Italy) and 100 U/mL penicillin–streptomycin (Thermo Fisher Scientific, Rodano, Milan, Italy) in 5% CO2 at 37 °C. Cell viability was determined by MTS after 2 h of exposure to the aliphatic sulfonate CAIs at 50 µM concentration, as previously described.

hCA IX = molecular target: T2, hCA IX (Homo sapiens, UniProt Q16790); experiment: stopped flow CO2 hydrase assay, CA IX; type: biochemical; conditions: for Selectivity index (SI) CA I/CA IX / Selectivity index (SI) CA II/CA IX: ratio between KI values; for Ki: stopped flow CO2 hydrase assay, mean from 3 different assays, errors ±5–10%
T2 construct: made in house
Description: as §1

hCA II = molecular target: T3, hCA II (Homo sapiens, UniProt P00918); experiment: stopped flow CO2 hydrase assay, CA II; type: biochemical; conditions: mean from 3 different assays, errors ±5–10%
T3 construct: made in house
Description: as §1

hCA IV = molecular target: T4, hCA IV (Homo sapiens, UniProt P22748); experiment: stopped flow CO2 hydrase assay, CA IV; type: biochemical; conditions: mean from 3 different assays, errors ±5–10%
T4 construct: made in house
Description: as §1

hCA XII = molecular target: T5, hCA XII (Homo sapiens, UniProt O43570); experiment: stopped flow CO2 hydrase assay, CA XII; type: biochemical; conditions: for Selectivity index (SI) CA I/CA XII / Selectivity index (SI) CA II/CA XII: ratio between KI values; for Ki: stopped flow CO2 hydrase assay, mean from 3 different assays, errors ±5–10%
T5 construct: made in house
Description: as §1

Caco-2 cells = experiment: Caco-2 cell viability by MTS; type: cell-based; conditions: 50 µM
Description: as §2

T1 sequence (P00915 whole entry): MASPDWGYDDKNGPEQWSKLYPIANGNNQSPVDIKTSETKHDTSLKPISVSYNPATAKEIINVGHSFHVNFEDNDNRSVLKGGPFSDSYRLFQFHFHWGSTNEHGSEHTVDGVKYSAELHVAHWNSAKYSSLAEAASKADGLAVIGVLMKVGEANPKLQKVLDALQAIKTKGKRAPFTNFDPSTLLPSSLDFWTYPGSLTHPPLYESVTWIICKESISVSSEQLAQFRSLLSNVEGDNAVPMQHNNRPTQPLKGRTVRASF
T5 sequence (O43570 25-354): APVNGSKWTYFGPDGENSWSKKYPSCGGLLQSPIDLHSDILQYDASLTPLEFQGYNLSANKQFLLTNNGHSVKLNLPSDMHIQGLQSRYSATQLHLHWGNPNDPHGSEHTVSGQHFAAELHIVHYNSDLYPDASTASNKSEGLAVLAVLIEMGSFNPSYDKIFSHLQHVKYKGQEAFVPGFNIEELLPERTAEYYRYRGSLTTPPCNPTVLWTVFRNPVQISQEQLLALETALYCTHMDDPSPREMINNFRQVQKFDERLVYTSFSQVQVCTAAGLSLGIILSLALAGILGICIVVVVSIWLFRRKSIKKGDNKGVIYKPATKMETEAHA
T4 sequence (P22748 19-312): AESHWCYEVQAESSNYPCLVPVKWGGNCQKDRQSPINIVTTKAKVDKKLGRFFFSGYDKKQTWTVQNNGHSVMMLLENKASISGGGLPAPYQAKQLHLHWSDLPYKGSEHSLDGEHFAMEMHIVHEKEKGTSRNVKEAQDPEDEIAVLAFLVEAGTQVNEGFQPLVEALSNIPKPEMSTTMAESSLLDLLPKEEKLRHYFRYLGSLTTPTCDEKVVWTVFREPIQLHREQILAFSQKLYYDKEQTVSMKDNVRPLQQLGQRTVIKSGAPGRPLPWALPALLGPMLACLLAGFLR

Molecule: NS(=O)(=O)c1ccc(NC(=O)Nc2ccc(OCc3cn(CCCS(=O)(=O)[O-])nn3)cc2)cc1.[Na+] [Compound 38, Sodium 3-(4-((4-(3-(4-sulfamoylphenyl)ureido)phenoxy)methyl)-1H-1,2,3-triazol-1-yl)propane-1-sulfonate]
- Ki (hCA I): 51.6 nM
- viability at 2 h, 50 µM [1]: > 95%
- melting point: > 300 °C
- Selectivity index (SI) CA I/CA IX (hCA IX): 0.95
- Selectivity index (SI) CA II/CA IX (hCA IX): 0.10
- Ki (hCA IX): 54.4 nM
- Ki (hCA II): 5.4 nM
- Ki (hCA IV): 36.7 nM
- Selectivity index (SI) CA I/CA XII (hCA XII): 1.1
- Selectivity index (SI) CA II/CA XII (hCA XII): 0.11
- Ki (hCA XII): 49 nM

Molecule: CC(=O)Nc1cc(S(N)(=O)=O)ccc1OCc1cn(CCCS(=O)(=O)[O-])nn1.[Na+] [Compound 39, Sodium 3-(4-((2-acetamido-4-sulfamoylphenoxy)methyl)-1H-1,2,3-triazol-1-yl)propane-1-sulfonate]
- Ki (hCA I): > 10000 nM
- viability at 2 h, 50 µM [1]: > 95%
- melting point: > 300 °C
- Selectivity index (SI) CA I/CA IX (hCA IX): >41
- Selectivity index (SI) CA II/CA IX (hCA IX): 0.26
- Ki (hCA IX): 242 nM
- Ki (hCA II): 63.4 nM
- Ki (hCA IV): 244 nM
- Selectivity index (SI) CA I/CA XII (hCA XII): >534
- Selectivity index (SI) CA II/CA XII (hCA XII): 3.4
- Ki (hCA XII): 18.7 nM

Molecule: Sodium 3-(4-(4-sulfamoylphenyl)-1H-1,2,3-triazol-1-yl)butane-1-sulfonate [Compound 41]
- Ki (hCA I): 150 nM
- cell viability (Caco-2 cells): > 95%
- Selectivity index (SI) CA I/CA IX (hCA IX): 17
- Selectivity index (SI) CA II/CA IX (hCA IX): 2.2
- Ki (hCA IX): 8.6 nM
- Ki (hCA II): 18.8 nM
- Ki (hCA IV): 408 nM
- Selectivity index (SI) CA I/CA XII (hCA XII): 3.4
- Selectivity index (SI) CA II/CA XII (hCA XII): 0.44
- Ki (hCA XII): 43.1 nM

Molecule: Sodium 3-(4-(((4-sulfamoylphenyl)amino)methyl)-1H-1,2,3-triazol-1-yl)butane-1-sulfonate [Compound 43]
- Ki (hCA I): 2910 nM
- cell viability (Caco-2 cells): > 95%
- Selectivity index (SI) CA I/CA IX (hCA IX): 36
- Selectivity index (SI) CA II/CA IX (hCA IX): 4.5
- Ki (hCA IX): 79.9 nM
- Ki (hCA II): 364 nM
- Ki (hCA IV): 883 nM
- Selectivity index (SI) CA I/CA XII (hCA XII): 855
- Selectivity index (SI) CA II/CA XII (hCA XII): 107
- Ki (hCA XII): 3.4 nM
